Measurements from patent publication US11083725B2 (priority 2014, dated 2021).

Test system: NHBE cells
Test: Biolog metabolic array: substrate use by NHBE cells with or without CA09 infection
Type: cell-based, human
Conditions: for Substrate use, 590 nm absorbance normalized to zero hour, 0 hr: Biolog PMM2, 0 hr; for Substrate use, 590 nm absorbance normalized to zero hour, 1 hr: Biolog PMM2, 1 hr; for Substrate use, 590 nm absorbance normalized to zero hour, 5 hr: Biolog PMM2, 5 hr; for Substrate use, 590 nm absorbance normalized to zero hour, 7 hr: Biolog PMM2, 7 hr
[1] = Control (uninfected) NHBE cells
[2] = Virus (CA09-infected NHBE cells, MOI 1)
[3] = Virus: CA09-infected NHBE cells, MOI 1, Biolog PMM2

SMILES	590 nm absorbance normalized to zero hour (substrate use), 1 hr [1]	590 nm absorbance normalized to zero hour (substrate use), 2 hr [1]	590 nm absorbance normalized to zero hour (substrate use), 3 hr [1]	590 nm absorbance normalized to zero hour (substrate use), 4 hr [1]	590 nm absorbance normalized to zero hour (substrate use), 6 hr [1]	590 nm absorbance normalized to zero hour (substrate use), 8 hr [1]	590 nm absorbance normalized to zero hour (substrate use), 9 hr [1]	590 nm absorbance normalized to zero hour (substrate use), 10 hr [1]	590 nm absorbance normalized to zero hour (substrate use), 11 hr [1]	Substrate use, 590 nm absorbance normalized to zero hour, 1 hr [1]	Substrate use, 590 nm absorbance normalized to zero hour, 5 hr [1]	Substrate use, 590 nm absorbance normalized to zero hour, 7 hr [1]	590 nm absorbance normalized to zero hour (substrate use), 1 hr [2]	590 nm absorbance normalized to zero hour (substrate use), 2 hr [2]	590 nm absorbance normalized to zero hour (substrate use), 3 hr [2]	590 nm absorbance normalized to zero hour (substrate use), 4 hr [2]	590 nm absorbance normalized to zero hour (substrate use), 5 hr [2]	590 nm absorbance normalized to zero hour (substrate use), 6 hr [2]	590 nm absorbance normalized to zero hour (substrate use), 7 hr [2]	590 nm absorbance normalized to zero hour (substrate use), 8 hr [2]	also measured
OC[C@H]1O[C@H](OC[C@H]2OC(O)(CO)[C@@H](O)[C@@H]2O)[C@H](O)[C@@H](O)[C@@H]1O (some centres unmarked) [Palatinose]	1.31	1.79	1.68	1.81	2.44	2.16	2.14	1.94	1.44	1.31	2.10	2.18	0.18	0.24	0.28	0.29	0.34	0.36	0.38	0.41	590 nm absorbance normalized to zero hour (substrate use), 0 hr [1]: 1.00; Substrate use, 590 nm absorbance normalized to zero hour, 0 hr [1]: 1.00; 590 nm absorbance normalized to zero hour (substrate use), 0 hr [2]: 1.00; 590 nm absorbance normalized to zero hour (substrate use), 9 hr [2]: 0.45; 590 nm absorbance normalized to zero hour (substrate use), 10 hr [2]: 0.46; 590 nm absorbance normalized to zero hour (substrate use), 11 hr [2]: 0.50; 590 nm absorbance normalized to zero hour (substrate use), 0 hr [3]: 1.00; 590 nm absorbance normalized to zero hour (substrate use), 1 hr [3]: 0.18; 590 nm absorbance normalized to zero hour (substrate use), 2 hr [3]: 0.24; 590 nm absorbance normalized to zero hour (substrate use), 3 hr [3]: 0.28; 590 nm absorbance normalized to zero hour (substrate use), 4 hr [3]: 0.29; 590 nm absorbance normalized to zero hour (substrate use), 5 hr [3]: 0.34; 590 nm absorbance normalized to zero hour (substrate use), 6 hr [3]: 0.36; 590 nm absorbance normalized to zero hour (substrate use), 7 hr [3]: 0.38; 590 nm absorbance normalized to zero hour (substrate use), 8 hr [3]: 0.41; 590 nm absorbance normalized to zero hour (substrate use), 9 hr [3]: 0.45; 590 nm absorbance normalized to zero hour (substrate use), 10 hr [3]: 0.46; 590 nm absorbance normalized to zero hour (substrate use), 11 hr [3]: 0.50
CCC(=O)C(=O)O [a-Keto-Butyric Acid]	1.10	1.17	1.24	1.25	1.49	1.34	1.36	1.37	1.39	1.10	1.28	1.33	0.28	0.29	0.30	0.31	0.32	0.32	0.33	0.33	590 nm absorbance normalized to zero hour (substrate use), 0 hr [1]: 1.00; Substrate use, 590 nm absorbance normalized to zero hour, 0 hr [1]: 1.00; 590 nm absorbance normalized to zero hour (substrate use), 0 hr [2]: 1.00; 590 nm absorbance normalized to zero hour (substrate use), 9 hr [2]: 0.34; 590 nm absorbance normalized to zero hour (substrate use), 10 hr [2]: 0.34; 590 nm absorbance normalized to zero hour (substrate use), 11 hr [2]: 0.34; 590 nm absorbance normalized to zero hour (substrate use), 0 hr [3]: 1.00; 590 nm absorbance normalized to zero hour (substrate use), 1 hr [3]: 0.28; 590 nm absorbance normalized to zero hour (substrate use), 2 hr [3]: 0.29; 590 nm absorbance normalized to zero hour (substrate use), 3 hr [3]: 0.30; 590 nm absorbance normalized to zero hour (substrate use), 4 hr [3]: 0.31; 590 nm absorbance normalized to zero hour (substrate use), 5 hr [3]: 0.32; 590 nm absorbance normalized to zero hour (substrate use), 6 hr [3]: 0.32; 590 nm absorbance normalized to zero hour (substrate use), 7 hr [3]: 0.33; 590 nm absorbance normalized to zero hour (substrate use), 8 hr [3]: 0.33; 590 nm absorbance normalized to zero hour (substrate use), 9 hr [3]: 0.34; 590 nm absorbance normalized to zero hour (substrate use), 10 hr [3]: 0.34; 590 nm absorbance normalized to zero hour (substrate use), 11 hr [3]: 0.34
O=C(O)CC(CC(=O)O)C(=O)O [Tricarballylic Acid]	1.07	1.03	0.79	1.20	0.35	0.54	0.83	0.74	0.59	1.07	0.72	0.89	0.20	0.25	0.29	0.29	0.32	0.34	0.36	0.36	590 nm absorbance normalized to zero hour (substrate use), 9 hr [2]: 0.39; 590 nm absorbance normalized to zero hour (substrate use), 10 hr [2]: 0.40; 590 nm absorbance normalized to zero hour (substrate use), 11 hr [2]: 0.38; 590 nm absorbance normalized to zero hour (substrate use), 1 hr [3]: 0.20; 590 nm absorbance normalized to zero hour (substrate use), 2 hr [3]: 0.25; 590 nm absorbance normalized to zero hour (substrate use), 3 hr [3]: 0.29; 590 nm absorbance normalized to zero hour (substrate use), 4 hr [3]: 0.29; 590 nm absorbance normalized to zero hour (substrate use), 5 hr [3]: 0.32; 590 nm absorbance normalized to zero hour (substrate use), 6 hr [3]: 0.34; 590 nm absorbance normalized to zero hour (substrate use), 7 hr [3]: 0.36; 590 nm absorbance normalized to zero hour (substrate use), 8 hr [3]: 0.36; 590 nm absorbance normalized to zero hour (substrate use), 9 hr [3]: 0.39; 590 nm absorbance normalized to zero hour (substrate use), 10 hr [3]: 0.40; 590 nm absorbance normalized to zero hour (substrate use), 11 hr [3]: 0.38
